Laboratory results as given in US7875647B2, “Heteroaryl-pyrazole derivatives as cannabinoid CB1 receptor antagonists” (Green Cross Corporation, priority 2006, dated 2011).
Read-outs that look alike come from different tables or passages of the source.

Biological target: T1, Cannabinoid-1 receptor (CB1R) (Rattus norvegicus, UniProt P20272)
T1 construct: The tissue obtained from the brain of SD rats was homogenized; from tissue; host or cells: brain of SD rats (membrane pellet of the homogenate)
Test: Cannabinoid-1 receptor (CB1R) binding affinity assay ([3H]CP-55940, rat CB-1 receptor binding protocol)
Details: brain tissue of SD rats, [3H]CP-55940, 30° C. 60 min
Experimental: The tissue obtained from the brain of SD rats was homogenized with a Dounce homogenate system in TME (50 mM Tris, 3 mM MgCl2 and 1 mM EDTA, pH 7.4) at 4° C., and the homogenate was centrifuged at 48,000 g for 30 min. at 4° C. The pellet was resuspended in 5 ml of TME and the suspension was divided into aliquots and stored at −70° C. until its use in the following assay.
The tissue concentrations were determined by Bradford protein analysis, and 148 μl of brain tissue of the required concentration was added to the plate. The plate was covered and placed in a 30° C. incubator for 60 min, and then transformed on GF/B filtermat pretreated in polyethylenimine (PEI) using a cell harvester. Each filter was washed five times and dried at 60° C. for 1 hr. Then, the degree of radioactivity retained by the filter was measured using Wallac Microbeta™ (PerkinElmer Life Sciences, Inc., Massachusetts, U.S.A.) and the activity of the compound for inhibiting CB1 receptor was determined therefrom.

T1 sequence (P20272 whole entry): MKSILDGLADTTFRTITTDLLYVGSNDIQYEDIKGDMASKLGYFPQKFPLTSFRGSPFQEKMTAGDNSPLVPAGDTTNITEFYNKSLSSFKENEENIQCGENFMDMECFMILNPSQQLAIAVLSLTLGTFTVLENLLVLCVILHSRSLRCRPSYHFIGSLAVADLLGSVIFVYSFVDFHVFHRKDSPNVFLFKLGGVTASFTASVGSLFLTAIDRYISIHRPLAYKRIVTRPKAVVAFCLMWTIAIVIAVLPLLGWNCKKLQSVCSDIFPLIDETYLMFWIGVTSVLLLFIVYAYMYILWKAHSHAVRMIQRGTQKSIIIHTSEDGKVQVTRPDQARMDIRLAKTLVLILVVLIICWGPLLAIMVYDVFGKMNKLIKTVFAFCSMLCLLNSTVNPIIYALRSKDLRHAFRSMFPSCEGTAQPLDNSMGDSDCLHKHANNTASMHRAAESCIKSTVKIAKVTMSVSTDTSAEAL

Row | IC50 (read-out: IC50) [nM] | Structure (SMILES) | IC50 (IC50(nM)) [nM]
1 | 5.71 | CCc1c(-c2nnc(C3(c4ccc(OC)cc4)CC3)o2)nn(-c2ccc(Cl)cc2Cl)c1-c1ccc(Br)cc1 [Example 175, 2-(5-(4-bromophenyl)-1-(2,4-dichlorophenyl)-4-ethyl-1H-pyrazol-3-yl)-5-(1-(4-methoxyphenyl)cyclopropyl)-1,3,4-oxadiazole] | –
2 | 4.47 | CCc1c(-c2nnc(C3(c4ccc(C)cc4)CC3)o2)nn(-c2ccc(Cl)cc2Cl)c1-c1ccc(Br)cc1 [Example 176, 2-(5-(4-bromophenyl)-1-(2,4-dichlorophenyl)-4-ethyl-1H-pyrazol-3-yl)-5-(1-p-tolylcyclopropyl)-1,3,4-oxadiazole] | –
3 | 22.5 | CC(C)c1c(-c2nnc(C3(c4ccc(Cl)cc4)CCC3)o2)nn(-c2ccc(Cl)cc2Cl)c1-c1ccc(Cl)cc1 [Example 182, 2-(5-(4-chlorophenyl)-1-(2,4-dichlorophenyl)-4-isopropyl-1H-pyrazol-3-yl)-5-(1-(4-chlorophenyl)cyclobutyl)-1,3,4-oxadiazole] | –
4 | 12.1 | CCCc1c(-c2nnc(C3(c4ccc(Cl)cc4)CC3)o2)nn(-c2ccc(Cl)cc2Cl)c1-c1ccc(Cl)cc1 [Example 186, 2-(5-(4-chlorophenyl)-1-(2,4-dichlorophenyl)-4-propyl-1H-pyrazol-3-yl)-5-(1-(4-chlorophenyl)cyclopropyl)-1,3,4-oxadiazole] | –
5 | 15.5 | CCc1c(-c2nnc(C3(c4ccccc4)CCCC3)o2)nn(-c2ccc(Cl)cc2Cl)c1-c1ccc(Br)cc1 [Example 188, 2-(5-(4-bromophenyl)-1-(2,4-dichlorophenyl)-4-ethyl-1H-pyrazol-3-yl)-5-(1-phenylcyclopentyl)-1,3,4-oxadiazole] | –
6 | 15 | CC(C)c1c(-c2nnc(C3(C(F)(F)F)CC3)o2)nn(-c2ccc(Cl)cc2Cl)c1-c1ccc(Cl)cc1 [Example 190, 2-(5-(4-chlorophenyl)-1-(2,4-dichlorophenyl)-4-isopropyl-1H-pyrazol-3-yl)-5-(1-(trifluoromethyl)cyclopropyl)-1,3,4-oxadiazole] | –
7 | 12.1 | CC(=O)OCc1c(-c2nnc(C(C)(C)C)o2)nn(-c2ccc(Cl)cc2Cl)c1-c1ccc(Br)cc1 [Example 195, (5-(4-bromophenyl)-3-(5-tert-butyl-1,3,4-oxadiazol-2-yl)-1-(2,4-dichlorophenyl)-1H-pyrazol-4-yl)methyl acetate] | –
8 | 22.4 | CC(=O)OCc1c(-c2nnc(C(C)(C)C)o2)nn(-c2ccc(Cl)cc2Cl)c1-c1ccc(Cl)cc1 [Example 196, (3-(5-tert-butyl-1,3,4-oxadiazol-2-yl)-5-(4-chlorophenyl)-1-(2,4-dichlorophenyl)-1H-pyrazol-4-yl)methyl acetate] | –
9 | 4.02 | OCc1c(-c2nnc(C3(c4ccc(Cl)cc4)CC3)o2)nn(-c2ccc(Cl)cc2Cl)c1-c1ccc(Cl)cc1 [Example 201, (5-(4-chlorophenyl)-3-(5-(1-(4-chlorophenyl)cyclopropyl)-1,3,4-oxadiazol-2-yl)-1-(2,4-dichlorophenyl)-1H-pyrazol-4-yl)methanol] | –
10 | 36.2 | CC(C)(C)c1nnc(-c2nn(-c3ccc(Cl)cc3Cl)c(-c3ccc(Cl)cc3)c2C=O)o1 [Example 202, 3-(5-tert-butyl-1,3,4-oxadiazol-2-yl)-5-(4-chlorophenyl)-1-(2,4-dichlorophenyl)-1H-pyrazole-4-carbaldehyde] | –
11 | 15.4 | COCc1c(-c2nnc(C(C)(C)C)o2)nn(-c2ccc(Cl)cc2Cl)c1-c1ccc(Cl)cc1 [Example 205, 2-tert-butyl-5-(5-(4-chlorophenyl)-1-(2,4-dichlorophenyl)-4-(methoxymethyl)-1H-pyrazol-3-yl)-1,3,4-oxadiazole] | –
12 | 5.77 | CC(O)c1c(-c2nnc(C3(c4ccc(Cl)cc4)CC3)o2)nn(-c2ccc(Cl)cc2Cl)c1-c1ccc(Cl)cc1 (centres unmarked) [Example 209, 1-(5-(4-chlorophenyl)-3-(5-(1-(4-chlorophenyl)cyclopropyl)-1,3,4-oxadiazol-2-yl)-1-(2,4-dichlorophenyl)-1H-pyrazol-4-yl)ethanol] | –
13 | 14.1 | CC(F)c1c(-c2nnc(C(C)(C)C)o2)nn(-c2ccc(Cl)cc2Cl)c1-c1ccc(Cl)cc1 (centres unmarked) [Example 210, 2-tert-butyl-5-(5-(4-chlorophenyl)-1-(2,4-dichlorophenyl)-4-(1-fluoroethyl)-1H-pyrazol-3-yl)-1,3,4-oxadiazole] | –
14 | 49.4 | CC(=O)c1c(-c2nnc(C(C)(C)C)o2)nn(-c2ccc(Cl)cc2Cl)c1-c1ccc(Cl)cc1 [Example 213, 1-(3-(5-tert-butyl-1,3,4-oxadiazol-2-yl)-5-(4-chlorophenyl)-1-(2,4-dichlorophenyl)-1H-pyrazol-4-yl)ethanone] | –

Further lines, the compound ahead of its results:

Row | Structure (SMILES) | IC50 (read-out: IC50) [nM] | IC50 (IC50(nM)) [nM]
15 | CCc1c(-c2nnc(C3(c4ccc(Cl)cc4Cl)CC3)o2)nn(-c2ccc(Cl)cc2Cl)c1-c1ccc(Br)cc1 [Example 174, 2-(5-(4-bromophenyl)-1-(2,4-dichlorophenyl)-4-ethyl-1H-pyrazol-3-yl)-5-(1-(2,4-dichlorophenyl)cyclopropyl)-1,3,4-oxadiazole] | 6.97 | –
16 | CCc1c(-c2nnc(C3(c4ccccc4)CC3)o2)nn(-c2ccc(Cl)cc2Cl)c1-c1ccc(Br)cc1 [Example 177, 2-(5-(4-bromophenyl)-1-(2,4-dichlorophenyl)-4-ethyl-1H-pyrazol-3-yl)-5-(1-phenylcyclopropyl)-1,3,4-oxadiazole] | – | 3.01
17 | CC(C)c1c(-c2nnc(C3(c4ccc(Cl)cc4)CC3)o2)nn(-c2ccc(Cl)cc2Cl)c1-c1ccc(Cl)cc1 [Example 181, 2-(5-(4-chlorophenyl)-1-(2,4-dichlorophenyl)-4-isopropyl-1H-pyrazol-3-yl)-5-(1-(4-chlorophenyl)cyclopropyl)-1,3,4-oxadiazole] | 9.72 | –
18 | CCCc1c(-c2nnc(C3(c4ccc(Cl)cc4)CCC3)o2)nn(-c2ccc(Cl)cc2Cl)c1-c1ccc(Cl)cc1 [Example 187, 2-(5-(4-chlorophenyl)-1-(2,4-dichlorophenyl)-4-propyl-1H-pyrazol-3-yl)-5-(1-(4-chlorophenyl)cyclobutyl)-1,3,4-oxadiazole] | 11.1 | –
19 | CCCc1c(-c2nnc(C3(C(F)(F)F)CC3)o2)nn(-c2ccc(Cl)cc2Cl)c1-c1ccc(Cl)cc1 [Example 191, 2-(5-(4-chlorophenyl)-1-(2,4-dichlorophenyl)-4-propyl-1H-pyrazol-3-yl)-5-(1-(trifluoromethyl)cyclopropyl)-1,3,4-oxadiazole] | 15 | –
20 | CC(=O)OCc1c(-c2nnc(C3(c4ccc(Cl)cc4)CC3)o2)nn(-c2ccc(Cl)cc2Cl)c1-c1ccc(Cl)cc1 [Example 197, (5-(4-chlorophenyl)-3-(5-(1-(4-chlorophenyl)cyclopropyl)-1,3,4-oxadiazol-2-yl)-1-(2,4-dichlorophenyl)-1H-pyrazol-4-yl)methyl acetate] | – | 7.07
21 | CC(C)(C)c1nnc(-c2nn(-c3ccc(Cl)cc3Cl)c(-c3ccc(Cl)cc3)c2COC(=O)c2ccccc2)o1 [Example 198, (3-(5-tert-butyl-1,3,4-oxadiazol-2-yl)-5-(4-chlorophenyl)-1-(2,4-dichlorophenyl)-1H-pyrazol-4-yl)methyl benzoate] | 68.8 | –
22 | CC(C)(C)c1nnc(-c2nn(-c3ccc(Cl)cc3Cl)c(-c3ccc(Br)cc3)c2CO)o1 [Example 200, (5-(4-bromophenyl)-3-(5-tert-butyl-1,3,4-oxadiazol-2-yl)-1-(2,4-dichlorophenyl)-1H-pyrazol-4-yl)methanol] | 6.35 | –
23 | CC(C)(C)c1nnc(-c2nn(-c3ccc(Cl)cc3Cl)c(-c3ccc(Br)cc3)c2C=O)o1 [Example 203, 5-(4-bromophenyl)-3-(5-tert-butyl-1,3,4-oxadiazol-2-yl)-1-(2,4-dichlorophenyl)-1H-pyrazole-4-carbaldehyde] | 18.8 | –
24 | O=Cc1c(-c2nnc(C3(c4ccc(Cl)cc4)CC3)o2)nn(-c2ccc(Cl)cc2Cl)c1-c1ccc(Cl)cc1 [Example 204, 5-(4-chlorophenyl)-3-(5-(1-(4-chlorophenyl)cyclopropyl)-1,3,4-oxadiazol-2-yl)-1-(2,4-dichlorophenyl)-1H-pyrazole-4-carbaldehyde] | 5.39 | –
25 | CCCCOCc1c(-c2nnc(C(C)(C)C)o2)nn(-c2ccc(Cl)cc2Cl)c1-c1ccc(Cl)cc1 [Example 206, 2-(4-(butoxymethyl)-5-(4-chlorophenyl)-1-(2,4-dichlorophenyl)-1H-pyrazol-3-yl)-5-tert-butyl-1,3,4-oxadiazole] | 113 | –
26 | CC(O)c1c(-c2nnc(C(C)(C)C)o2)nn(-c2ccc(Cl)cc2Cl)c1-c1ccc(Cl)cc1 (centres unmarked) [Example 207, 1-(3-(5-tert-butyl-1,3,4-oxadiazol-2-yl)-5-(4-chlorophenyl)-1-(2,4-dichlorophenyl)-1H-pyrazol-4-yl)ethanol] | 10.1 | –
27 | CC(O)c1c(-c2nnc(C(C)(C)C)o2)nn(-c2ccc(Cl)cc2Cl)c1-c1ccc(Br)cc1 (centres unmarked) [Example 208, 1-(5-(4-bromophenyl)-3-(5-tert-butyl-1,3,4-oxadiazol-2-yl)-1-(2,4-dichlorophenyl)-1H-pyrazol-4-yl)ethanol] | 6.72 | –
28 | CC(F)c1c(-c2nnc(C(C)(C)C)o2)nn(-c2ccc(Cl)cc2Cl)c1-c1ccc(Br)cc1 (centres unmarked) [Example 211, 2-(5-(4-bromophenyl)-1-(2,4-dichlorophenyl)-4-(1-fluoroethyl)-1H-pyrazol-3-yl)-5-tert-butyl-1,3,4-oxadiazole] | 12.1 | –
29 | CC(F)c1c(-c2nnc(C3(c4ccc(Cl)cc4)CC3)o2)nn(-c2ccc(Cl)cc2Cl)c1-c1ccc(Cl)cc1 (centres unmarked) [Example 212, 2-(5-(4-chlorophenyl)-1-(2,4-dichlorophenyl)-4-(1-fluoroethyl)-1H-pyrazol-3-yl)-5-(1-(4-chlorophenyl)cyclopropyl)-1,3,4-oxadiazole] | 4.97 | –
